Source: patent US6410782B1, “Diphosphonic acid salts for the treatment of osteoporosis” (Geange Ltd., priority 1997, dated 2002)
Counter-ions that a name gives are not always drawn.

Legend:
[1] = test system: alkaline phosphatase (as osteoblastic activity index); conditions: scalp slices of new-born mouse, tissue culture; starting from the 10 μmolar concentration
Protocol: (§1) A study on a tissue culture (scalp slices of new-born mouse prepared according to the method described by A. Togari, Gen. Pharmacol. 24, 1133, 1993) was performed. At the end of the culture period, the tissue added μmolar concentrations of the title product, was homogenised in saline plus 0.1% Triton X-100.
(§2) The obtained homogenate was used to determine alkaline phosphatase (as osteoblastic activity index) and N-acetylglycosaminidase (as osteoclastic activity index).

[2] = test system: N-acetylglycosaminidase (as osteoclastic activity index); conditions: scalp slices of new-born mouse, tissue culture; starting from the 10 μmolar concentration
Protocol: as §1, §2

NCCCC(O)(P(=O)(O)O)P(=O)(O)O [alendronate trometamine, alendronate trometamine salt]
osteoblastic activity (alkaline phosphatase) [1]: activate in a significant manner the osteoblastic activity | osteoclastic activity (N-acetylglycosaminidase) [2]: inhibit the osteoclastic activity
